Data from ChEMBL document CHEMBL5465560, “Selectivity Literature for EUbOPEN Chemogenomic Library” (2024).

Key:
[1] = molecular target: Vascular endothelial growth factor receptor 3 (Homo sapiens, UniProt P35916); experiment: Selectivity interaction (KinomeScan (DiscoverX)) EUB0000092b FLT4; conditions: at 10 µM
[2] = molecular target: T1, Myosin light chain kinase (Homo sapiens) (UniProt Q32MK0); experiment: Selectivity interaction (ProQinase) EUB0000171b MYLK3
T1 sequence (whole entry): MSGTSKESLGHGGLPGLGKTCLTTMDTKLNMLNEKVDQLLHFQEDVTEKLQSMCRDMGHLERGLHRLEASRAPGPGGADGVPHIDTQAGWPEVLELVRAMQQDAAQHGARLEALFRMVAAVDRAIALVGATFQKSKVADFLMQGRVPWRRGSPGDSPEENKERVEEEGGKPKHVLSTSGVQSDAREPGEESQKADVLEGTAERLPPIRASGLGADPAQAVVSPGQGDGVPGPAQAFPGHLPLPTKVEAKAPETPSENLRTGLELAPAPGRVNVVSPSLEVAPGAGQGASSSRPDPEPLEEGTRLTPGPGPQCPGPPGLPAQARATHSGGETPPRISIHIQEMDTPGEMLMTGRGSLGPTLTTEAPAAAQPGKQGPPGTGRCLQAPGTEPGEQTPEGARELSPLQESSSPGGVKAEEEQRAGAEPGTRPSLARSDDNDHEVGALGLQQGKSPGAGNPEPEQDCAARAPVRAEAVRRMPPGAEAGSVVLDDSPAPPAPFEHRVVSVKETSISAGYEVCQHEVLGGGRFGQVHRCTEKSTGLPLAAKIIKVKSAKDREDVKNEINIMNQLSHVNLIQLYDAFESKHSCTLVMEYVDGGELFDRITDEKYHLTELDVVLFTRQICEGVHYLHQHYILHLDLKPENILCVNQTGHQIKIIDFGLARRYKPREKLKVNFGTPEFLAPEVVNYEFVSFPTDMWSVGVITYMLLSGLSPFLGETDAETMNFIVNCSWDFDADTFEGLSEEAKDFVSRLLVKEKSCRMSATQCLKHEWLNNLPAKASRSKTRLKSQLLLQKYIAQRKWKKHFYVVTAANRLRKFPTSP

[3] = tested on: Tyrosine-protein kinase ABL1 (Homo sapiens), P00519 [Q252H]; conditions: at 10 µM
[4] = molecular target: T2, Serine/threonine-protein kinase 17A (Homo sapiens) (UniProt Q9UEE5); experiment: Selectivity interaction (LanthaScreen Eu Kinase Binding Assay) EUB0001632a STK17A; conditions: at 10 µM
T2 sequence (whole entry): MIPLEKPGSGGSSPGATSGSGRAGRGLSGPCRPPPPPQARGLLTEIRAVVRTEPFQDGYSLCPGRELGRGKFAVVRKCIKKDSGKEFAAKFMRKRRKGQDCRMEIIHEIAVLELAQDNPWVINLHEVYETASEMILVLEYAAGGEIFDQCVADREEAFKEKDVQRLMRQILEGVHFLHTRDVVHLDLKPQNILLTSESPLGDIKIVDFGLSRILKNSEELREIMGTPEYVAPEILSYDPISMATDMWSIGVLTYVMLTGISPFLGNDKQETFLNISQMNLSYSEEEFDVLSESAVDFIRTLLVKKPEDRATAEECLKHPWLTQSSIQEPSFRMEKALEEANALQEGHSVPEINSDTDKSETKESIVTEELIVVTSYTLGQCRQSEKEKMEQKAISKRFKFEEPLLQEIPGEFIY

[5] = molecular target: T3, Aurora kinase C (Homo sapiens) (UniProt Q9UQB9); experiment: Selectivity interaction (KinomeScan (DiscoverX)) EUB0000607a AURKC; conditions: at 10 µM
T3 sequence (whole entry): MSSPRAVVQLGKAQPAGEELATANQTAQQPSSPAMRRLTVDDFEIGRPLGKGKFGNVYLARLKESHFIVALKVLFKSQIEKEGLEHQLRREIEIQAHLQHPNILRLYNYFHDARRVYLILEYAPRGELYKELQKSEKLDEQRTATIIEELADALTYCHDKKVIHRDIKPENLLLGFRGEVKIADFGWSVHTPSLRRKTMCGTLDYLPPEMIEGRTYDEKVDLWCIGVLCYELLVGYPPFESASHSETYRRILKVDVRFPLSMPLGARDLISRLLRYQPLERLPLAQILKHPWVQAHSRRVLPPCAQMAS

[6] = molecular target: Fibroblast growth factor receptor 4 (Homo sapiens, UniProt P22455); experiment: Selectivity interaction (KinomeScan (DiscoverX)) EUB0000045b FGFR4
Sequence of Fibroblast growth factor receptor 4 (P22455 22-802 limits assumed): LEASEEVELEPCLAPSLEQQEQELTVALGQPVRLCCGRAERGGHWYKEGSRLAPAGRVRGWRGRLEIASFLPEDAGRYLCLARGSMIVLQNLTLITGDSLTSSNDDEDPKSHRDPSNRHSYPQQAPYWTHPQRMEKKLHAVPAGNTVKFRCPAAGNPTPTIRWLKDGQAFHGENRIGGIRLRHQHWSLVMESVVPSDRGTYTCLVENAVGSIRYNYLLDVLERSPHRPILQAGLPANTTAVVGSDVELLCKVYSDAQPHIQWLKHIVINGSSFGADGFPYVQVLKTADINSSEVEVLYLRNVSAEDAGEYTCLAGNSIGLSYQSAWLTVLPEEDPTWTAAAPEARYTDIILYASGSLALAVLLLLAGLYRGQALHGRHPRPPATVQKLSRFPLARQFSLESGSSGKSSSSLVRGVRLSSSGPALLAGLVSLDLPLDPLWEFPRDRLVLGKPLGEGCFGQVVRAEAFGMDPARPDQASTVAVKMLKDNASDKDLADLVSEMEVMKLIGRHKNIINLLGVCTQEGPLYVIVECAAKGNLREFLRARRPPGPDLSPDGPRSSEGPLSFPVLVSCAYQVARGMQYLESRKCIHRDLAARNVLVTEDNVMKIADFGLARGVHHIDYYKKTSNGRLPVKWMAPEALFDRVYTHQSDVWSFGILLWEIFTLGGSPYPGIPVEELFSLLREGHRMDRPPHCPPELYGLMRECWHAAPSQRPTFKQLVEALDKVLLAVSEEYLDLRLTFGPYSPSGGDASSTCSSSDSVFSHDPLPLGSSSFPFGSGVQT

[7] = molecular target: T4, Serine/threonine-protein kinase Nek9 (Homo sapiens) (UniProt Q8TD19); experiment: Selectivity interaction (ActivX KiNativ screen (ex vivo kinase selectivity in human PBMCs)) EUB0001619a NEK9; type: cell-based; conditions: PBMC, at 1 µM
T4 sequence (whole entry): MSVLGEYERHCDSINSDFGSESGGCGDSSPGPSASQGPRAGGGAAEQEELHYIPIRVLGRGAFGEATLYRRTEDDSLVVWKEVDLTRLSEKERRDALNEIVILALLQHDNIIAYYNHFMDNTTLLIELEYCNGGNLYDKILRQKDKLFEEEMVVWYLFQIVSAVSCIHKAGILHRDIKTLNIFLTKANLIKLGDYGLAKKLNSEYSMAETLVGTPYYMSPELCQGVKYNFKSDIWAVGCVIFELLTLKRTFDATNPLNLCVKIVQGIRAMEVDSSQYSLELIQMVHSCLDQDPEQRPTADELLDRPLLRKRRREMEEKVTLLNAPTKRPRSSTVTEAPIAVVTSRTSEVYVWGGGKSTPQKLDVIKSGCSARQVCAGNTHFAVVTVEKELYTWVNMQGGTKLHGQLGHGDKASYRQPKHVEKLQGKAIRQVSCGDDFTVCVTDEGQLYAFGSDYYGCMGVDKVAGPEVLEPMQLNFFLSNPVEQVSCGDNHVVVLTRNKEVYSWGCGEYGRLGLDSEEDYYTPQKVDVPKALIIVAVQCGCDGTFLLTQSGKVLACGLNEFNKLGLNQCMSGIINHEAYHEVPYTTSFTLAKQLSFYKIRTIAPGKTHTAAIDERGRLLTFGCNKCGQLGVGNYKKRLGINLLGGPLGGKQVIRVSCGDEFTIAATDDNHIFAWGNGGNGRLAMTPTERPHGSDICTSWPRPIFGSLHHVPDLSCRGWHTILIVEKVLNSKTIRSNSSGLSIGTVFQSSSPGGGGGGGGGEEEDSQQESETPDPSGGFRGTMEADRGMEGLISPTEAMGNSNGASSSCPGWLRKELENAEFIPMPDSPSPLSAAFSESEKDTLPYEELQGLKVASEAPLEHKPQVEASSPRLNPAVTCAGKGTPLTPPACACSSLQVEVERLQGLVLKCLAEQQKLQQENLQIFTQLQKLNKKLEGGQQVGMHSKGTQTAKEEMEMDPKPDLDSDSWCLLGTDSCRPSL

[8] = molecular target: Ribosomal protein S6 kinase alpha-2 (Homo sapiens) (UniProt Q15349); experiment: Selectivity interaction (KinomeScan (DiscoverX)) EUB0001619a RPS6KA2; conditions: at 1 µM
Sequence of Ribosomal protein S6 kinase alpha-2 (Homo sapiens) (Q15349 whole entry): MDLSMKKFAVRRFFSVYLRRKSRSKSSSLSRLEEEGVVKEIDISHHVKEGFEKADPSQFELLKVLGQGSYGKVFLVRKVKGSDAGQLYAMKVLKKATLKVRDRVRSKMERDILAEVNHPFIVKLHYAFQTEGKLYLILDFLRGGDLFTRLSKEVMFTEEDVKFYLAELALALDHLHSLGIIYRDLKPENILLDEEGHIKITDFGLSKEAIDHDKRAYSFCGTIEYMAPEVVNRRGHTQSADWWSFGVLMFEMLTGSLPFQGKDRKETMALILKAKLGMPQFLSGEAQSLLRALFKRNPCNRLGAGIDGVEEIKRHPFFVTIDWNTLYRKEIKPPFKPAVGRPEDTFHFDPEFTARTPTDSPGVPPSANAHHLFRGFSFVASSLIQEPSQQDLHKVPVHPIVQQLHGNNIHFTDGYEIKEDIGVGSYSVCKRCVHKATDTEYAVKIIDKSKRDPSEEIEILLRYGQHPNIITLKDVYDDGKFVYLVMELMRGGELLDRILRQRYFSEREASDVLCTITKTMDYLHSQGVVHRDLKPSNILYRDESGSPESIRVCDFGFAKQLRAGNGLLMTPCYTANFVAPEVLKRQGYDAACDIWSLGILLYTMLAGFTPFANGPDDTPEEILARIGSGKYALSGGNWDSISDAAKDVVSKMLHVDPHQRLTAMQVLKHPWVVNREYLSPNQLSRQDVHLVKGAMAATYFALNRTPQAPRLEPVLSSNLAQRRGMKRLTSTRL

[9] = molecular target: Non-receptor tyrosine-protein kinase TYK2 (Homo sapiens, UniProt P29597); experiment: Selectivity interaction (KinomeScan (DiscoverX)) EUB0001619a TYK2; conditions: at 1 µM
Sequence of Non-receptor tyrosine-protein kinase TYK2 (P29597 whole entry): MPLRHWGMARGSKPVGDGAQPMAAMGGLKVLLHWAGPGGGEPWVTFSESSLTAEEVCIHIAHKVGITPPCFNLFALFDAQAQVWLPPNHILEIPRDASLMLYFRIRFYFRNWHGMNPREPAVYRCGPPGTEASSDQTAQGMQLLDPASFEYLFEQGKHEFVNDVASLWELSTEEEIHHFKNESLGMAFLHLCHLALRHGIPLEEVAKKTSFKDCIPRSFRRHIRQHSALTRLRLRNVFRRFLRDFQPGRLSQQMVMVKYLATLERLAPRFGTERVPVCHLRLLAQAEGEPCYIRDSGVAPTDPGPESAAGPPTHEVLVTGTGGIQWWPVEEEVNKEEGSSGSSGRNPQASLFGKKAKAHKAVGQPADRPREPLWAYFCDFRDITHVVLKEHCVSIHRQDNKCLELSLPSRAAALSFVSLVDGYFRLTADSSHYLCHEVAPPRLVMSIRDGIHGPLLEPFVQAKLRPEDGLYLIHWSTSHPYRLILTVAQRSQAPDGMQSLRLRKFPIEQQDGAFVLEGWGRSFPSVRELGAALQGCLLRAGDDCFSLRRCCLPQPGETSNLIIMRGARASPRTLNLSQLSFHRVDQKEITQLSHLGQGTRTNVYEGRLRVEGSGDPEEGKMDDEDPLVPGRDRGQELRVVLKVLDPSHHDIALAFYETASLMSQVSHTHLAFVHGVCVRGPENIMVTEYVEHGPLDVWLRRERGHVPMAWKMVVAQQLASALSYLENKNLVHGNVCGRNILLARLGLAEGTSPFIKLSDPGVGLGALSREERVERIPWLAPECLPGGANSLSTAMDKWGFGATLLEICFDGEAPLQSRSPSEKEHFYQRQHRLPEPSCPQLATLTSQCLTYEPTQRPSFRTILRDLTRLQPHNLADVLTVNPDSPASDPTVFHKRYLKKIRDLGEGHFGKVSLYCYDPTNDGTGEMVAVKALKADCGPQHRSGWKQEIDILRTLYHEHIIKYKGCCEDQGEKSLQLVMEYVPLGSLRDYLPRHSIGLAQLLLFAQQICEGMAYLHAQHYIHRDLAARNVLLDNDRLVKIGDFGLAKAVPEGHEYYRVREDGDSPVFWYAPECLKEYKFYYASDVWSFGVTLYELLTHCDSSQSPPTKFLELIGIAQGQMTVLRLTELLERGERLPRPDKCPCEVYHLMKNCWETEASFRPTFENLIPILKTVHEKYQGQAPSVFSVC

Sequence of Vascular endothelial growth factor receptor 3 (P35916 whole entry): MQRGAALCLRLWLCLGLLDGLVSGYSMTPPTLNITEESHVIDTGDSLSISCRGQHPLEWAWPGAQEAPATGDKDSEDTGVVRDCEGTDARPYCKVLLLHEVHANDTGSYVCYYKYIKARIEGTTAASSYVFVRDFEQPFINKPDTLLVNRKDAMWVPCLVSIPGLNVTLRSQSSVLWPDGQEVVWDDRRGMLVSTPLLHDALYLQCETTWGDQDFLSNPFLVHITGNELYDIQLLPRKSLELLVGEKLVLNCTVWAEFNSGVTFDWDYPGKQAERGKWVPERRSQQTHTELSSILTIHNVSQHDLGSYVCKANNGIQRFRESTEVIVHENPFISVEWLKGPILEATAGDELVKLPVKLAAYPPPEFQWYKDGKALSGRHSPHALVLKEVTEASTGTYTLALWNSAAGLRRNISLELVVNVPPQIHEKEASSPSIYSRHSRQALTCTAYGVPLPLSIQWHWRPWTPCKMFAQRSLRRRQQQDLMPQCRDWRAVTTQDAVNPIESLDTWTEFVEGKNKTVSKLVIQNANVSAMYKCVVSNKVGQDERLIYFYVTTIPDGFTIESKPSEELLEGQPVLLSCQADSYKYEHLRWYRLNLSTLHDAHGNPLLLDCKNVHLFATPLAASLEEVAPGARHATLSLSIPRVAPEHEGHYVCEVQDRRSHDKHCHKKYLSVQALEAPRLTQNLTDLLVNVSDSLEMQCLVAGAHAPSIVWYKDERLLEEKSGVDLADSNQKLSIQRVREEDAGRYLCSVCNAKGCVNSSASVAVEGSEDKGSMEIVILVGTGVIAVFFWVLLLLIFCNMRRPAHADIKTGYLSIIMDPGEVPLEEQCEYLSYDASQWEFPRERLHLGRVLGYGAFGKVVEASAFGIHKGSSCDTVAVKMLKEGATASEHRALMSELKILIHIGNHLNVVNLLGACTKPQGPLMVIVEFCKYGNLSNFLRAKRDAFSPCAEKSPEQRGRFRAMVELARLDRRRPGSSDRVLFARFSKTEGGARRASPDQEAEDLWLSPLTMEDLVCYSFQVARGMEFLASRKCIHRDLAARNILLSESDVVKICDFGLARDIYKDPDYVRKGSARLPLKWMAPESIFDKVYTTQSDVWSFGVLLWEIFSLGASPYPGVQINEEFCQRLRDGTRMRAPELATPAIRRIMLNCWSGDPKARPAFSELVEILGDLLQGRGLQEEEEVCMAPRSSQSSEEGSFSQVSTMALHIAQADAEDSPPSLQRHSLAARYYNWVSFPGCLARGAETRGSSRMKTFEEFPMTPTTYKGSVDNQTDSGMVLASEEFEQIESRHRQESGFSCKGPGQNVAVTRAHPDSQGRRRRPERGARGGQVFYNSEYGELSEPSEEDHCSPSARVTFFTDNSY

## CCC(=O)N1CCN(c2ccc(-n3c(=O)ccc4cnc5ccc(-c6cnc7ccccc7c6)cc5c43)cc2C(F)(F)F)CC1
[1]
  % of control: 74%

## C=CC(=O)Nc1cccc(C(=O)Nc2ccc(Nc3cc(-c4[nH]c(SC)nc4C)ccn3)cc2)c1
[2]; at 1 µM
  % of control: 89%
[2]; at 5 µM
  % of control: 68%

## Cc1cc([C@@H](C)Nc2ccccc2C(=O)O)c2nc(N3CCOCC3)cc(=O)n2c1 [AZD-6482]
[3]
  % of control: 100%

## Cn1cc(-n2cnc3c(NCc4nc5cc(Cl)c(Cl)cc5[nH]4)nc(N4CCOCC4)nc32)cn1
[4]
  % of inhibition: -13.2%

## CNC(=O)Nc1ccc(-c2nc(N3CC4CCC(C3)O4)c3cnn(C4CCC5(CC4)OCCO5)c3n2)cc1
[5]
  % of control: 86%

## C=CC(=O)Nc1cc(-n2c(=O)ccc3cnc4ccc(-c5ccc(NS(C)(=O)=O)cc5)cc4c32)ccc1C
[6]; at 1 µM
  % of control: 100%
[6]; at 10 µM
  % of control: 84%

## N#Cc1cccc(-c2c[nH]c3ncnc(N4CCOCC4)c23)c1
[7]
  % of inhibition: -31%
[8]
  % of control: 82%
[9]
  % of control: 75%
